Source: patent publication US20180325933A1, “FOOD INTAKE, BODY WEIGHT AND GLUCOSE METABOLISM REGULATION BY MODULATION OF P2Y6 RECEPTOR SIGNALING” (priority 2014, published 2018)
No end group written: not given here.

Columns and labels:
[1] = test system: wild type mice fed a normal chow diet; assay: Spontaneous food intake after intracerebroventricular (ICV) administration; assay type: in vivo
Method: To explore whether UDP plays a direct role on the central regulation of feeding behavior, the effect of intracerebroventricular administration (ICV) of UDP on spontaneous food intake in wild type mice fed with a normal chow diet was measured. Therefore, mice were anesthetized using ketamine/dexmedetomidine. Guide cannulas (26 gauges) were stereotaxically inserted into the lateral ventricle (bregma −0.2 mm, midline 1.0 mm, dorsal surface −2.1 mm). Animals were allowed to recover for one week prior to experiments.
Prior to the onset of the dark phase, mice acutely received 2 μL ICV administration of UDP (1 μM, 10 μM and 30 μM; Sigma-Aldrich®), MRS 2578 (1 μM, 10 μM; Sigma-Aldrich®), or control solution (NaCl). Spontaneous food intake was measured 2 and 4 hours after ICV administration from pre-weighed portions of food dispensed from the food rack. […] UDP appears to be a strong orexigenic agent as administration of 30 μM UDP induces a 45% increase of spontaneous food intake.
FIG. 1: (A) Food intake measurement (depicted as food intake to body weight) after intracereborventricular (icv) administration of increasing doses of UDP (1 μM, 10 μM and 30 μM) or vehicle (saline) (n=26vs13vs11vs14). (B) Food intake measurement (depicted as food intake to body weight) after intracereborventricular (icv) administration of P2Y6 antagonist MRS2578 (1 μM and […]) or vehicle (saline) (n=9vs5vs5). Data are presented as mean±SEM. **p<0.01, ***p<0.001.

[2] = test system: cFos immunoreactive cells in the arcuate nucleus of the hypothalamus; assay: cFos immunoreactivity in the arcuate nucleus after icv administration; assay type: in vivo, C57BL/6 N mice; settings: icv 30 μM UDP versus vehicle (saline)
Method: (§1) Having identified a restricted domain of P2Y6 expression in neurons of the ARH, the inventors next investigated whether intracerebroventricular (icv) application of the P2Y6 agonist UDP modulates activation of ARH neurons. To this end, C57BL/6 N control mice were implanted with icy cannulas in the lateral ventricle. Following icy administration of either vehicle (i.e. saline) or 30 μM UDP, brains were processed for immunochemistry with an antibody, which detects the immediate early gene product cFos. […] Since cFos activation can occur either directly in the respective brain area or indirectly via trans-synaptic activation of cells located in projecting areas of directly activated neurons, the inventors investigated the direct effect of UDP on its P2Y6. […] Therefore, the inventors also used pERK as a direct read-out of UDP action and the inventors assessed pERK immunoreactivity in the arcuate nucleus following icy UDP application. […]
(§2) FIG. 3: Confocal images and quantification comparison of (A) cFos- and (B) pERK-immunoreactive cells in the arcuate nucleus (ARH) of mice after intracerebroventricular administration of vehicle (saline) or 30 μM UDP (ncFos=7vs9; npERK=5vs6). […] (C) Quantification and representative immunoblots of phosphorylated and total ERK in hypothalamic cell lines after incubation with vehicle (saline) or 1 μM UDP (n=11vs12, from 3 independent experiments). […]

[3] = test system: hypothalamic cell line (immortalized AgRP-neurons); assay: ERK phosphorylation in hypothalamic cell line (immunoblot); assay type: cell-based; settings: 1 μM UDP
Method: as §1, §2

[4] = test system: pERK-positive cells in the ARH; assay: pERK immunoreactivity in the arcuate nucleus after icv administration; assay type: in vivo, mice; settings: icv 30 μM UDP
Method: as §1, §2

NPY-neurons in the ARH = assay: cFos immunoreactivity of NPY-neurons in NPY-GFP mice after icv administration; assay type: in vivo; settings: icv 30 μM UDP; 20% following vehicle
Source text: Given that the ventromedial part of the ARH mainly contains AgRP/NPY neurons, the inventors next directly investigated the specific effect of P2Y6/UDP on those neurons. The inventors addressed whether icy application of UDP specifically activates NPY/AgRP-coexpressing neurons in the ARH. The inventors therefore repeated the UDP-induced cFos experiments in mice, which express GFP under control of the neuropeptide (NPY)-promotor (NPY-GFP-mice).
FIG. 4: (A) Confocal images and quantitative comparison of ARH cFos immunoreactive cells in NPY-GFP mice after intracerebroventricular administration of vehicle (saline) or 30 μM UDP (n=3 vs. 4). (B) Recording of an AgRPtdTomato neuron showing the increase in action potential frequency in response to the application of 3 μM UDP. […] (C) Identification of a recorded neuron by antibody staining against tdTomato (red) and a biocytin backfill of the recorded neuron (green). (D) Overall responsiveness to 3 μM UDP of the recorded AgRP neuron population (n=11 in total: 4 non-responsive neurons vs 7 responsive). (E) Quantification of action potential (AP) frequency (n=11). Grey circles mark single recordings responding with a significant increase in AP frequency, open circles are non-responsive neurons. All recordings have been conducted in synaptically isolated neurons. […]

AgRP neurons = assay: Electrophysiological recordings from AgRP-neurons; assay type: cell-based, AgRPtdTomato mice
Source text: Next the inventors aimed to further directly support the notion, that the P2Y6 agonist UDP can modulate the activity of AgRP-expressing neurons in the ARH. Therefore, the inventors performed electrophysiological recordings from transgenic mice which express red tomato protein under control of the AgRP promoter through Cre-loxP-mediated recombination in (B6; 129S6-Gt(ROSA)26Sortm9(CAG-tdTomato)Hze/J) mice (AgRPtdTomato) (FIGS. 4B and 4C). […] Collectively, these experiments indicate that orexigenic AgRP/NPY-coexpressing neurons in the ARH not only express the UDP receptor P2Y6 but that they are directly activated following UDP application both in vitro and in vivo.
Having defined that the food intake-promoting activity of UDP is mediated through P2Y6-dependent signaling, the inventors aimed to assess whether also UDP's ability to activate AgRP-neuron firing depends on functional P2Y6 signaling. To this end, the inventors performed electrophysiological recordings from genetically identified AgRP-neurons in AgRPtdTomato mice. […] Thus, not only UDP-induced activation of feeding but also UDP-stimulated activation of AgRP-neurons critically depends on functional P2Y6 signaling.
FIG. 4: (A) Confocal images and quantitative comparison of ARH cFos immunoreactive cells in NPY-GFP mice after intracerebroventricular administration of vehicle (saline) or 30 μM UDP (n=3 vs. 4). (B) Recording of an AgRPtdTomato neuron showing the increase in action potential frequency in response to the application of 3 μM UDP. […] (C) Identification of a recorded neuron by antibody staining against tdTomato (red) and a biocytin backfill of the recorded neuron (green). (D) Overall responsiveness to 3 μM UDP of the recorded AgRP neuron population (n=11 in total: 4 non-responsive neurons vs 7 responsive). (E) Quantification of action potential (AP) frequency (n=11). Grey circles mark single recordings responding with a significant increase in AP frequency, open circles are non-responsive neurons. All recordings have been conducted in synaptically isolated neurons. Scale bars: A, 50 μm; B, 100 μm and C, […] and […] in the magnifications, respectively. V3, third ventricle. Data are presented as mean±SEM, *p<0.05 (A) and as boxplots generated according to the “Tukey method” (mean: “+” median: horizontal line) (E). *p<0.05.
FIG. 6: Food intake measurement after intracerebroventricular (icv) administration of (A) vehicle (0.1% DMSO), 1 μM of the P2Y6-specific antagonist MRS […] or co-icv of 30 μM UDP and 1 μM MRS 2578 (n=10vs11vs14vs12), or (B) vehicle (0.1% DMSO), 1 μM MRS 2578, 2 μg ghrelin or co-icv of 2 μg ghrelin and 1 μM MRS 2578 (n=13vs13vs14vs14). (C) Original traces showing the action potential firing during the application of MRS 2578 and during the application of 3 μM UDP in the presence of MRS 2578. (D) Quantification of action potential frequency (AP) (n=12). Data are presented as mean±SEM, *p<0.05 (A-B) and as boxplots generated according to the “Tukey method” (mean: “+”, median: horizontal line) […]. *p<0.05, **p<0.01, ***p<0.001 as compared to vehicle or control.

AgRPCre mice = assay: Food intake with pharmacogenetic (hM4D/CNO) inhibition of AgRP cells; assay type: in vivo; settings: icv 30 μM UDP
Source text: To directly assess, whether the ability of centrally applied UDP to activate feeding depends on AgRP-cell activation, the inventors investigated the effect of centrally administered UDP in mice, which allow for pharmacogenetic inhibition of AgRP cells. To this end, the inventors injected AgRPCre mice bilaterally into the ARH with an AAV, which co-expresses in a Cre-dependent manner the inhibtory DREADD-channel hM4D and mCherry.
FIG. 5: (A) Representative microphotographs of mCherry immunostainng in control and AgRP^Cre mice injected bilaterally in the arcuate nucleus (ARH) with Cre-dependent rAAV-hSyn-DIO-hM4D(Gi)-mCherry (mCherry, red; DAPI counterstaining, blue). Scale bar: 100 μm. V3, third ventricle. (B) Food intake measurement in virus-injected AgRP^Cre mice or control wild type litter mates. Mice received CNO injections (0.3 mg/kgBW) 15 minutes prior to icy administration of 30 μM UDP or vehicle (Saline) (n=6 vs 8 vs 5 vs 5). Data are presented as mean±SEM, **p<0.01, ***p<0.001 as compare to vehicle.

P2Y6 = assay: Food intake after icv UDP or ghrelin with or without P2Y6 antagonist; assay type: in vivo, mice
Source text: To further elucidate the specific contribution of P2Y6-mediated signaling in UDP-dependent activation of food intake, the inventors took a pharmacological approach.
Data are presented as mean±SEM, *p<0.05 (A-B) and as boxplots generated according to the “Tukey method” (mean: “+”, median: horizontal line) (F). *p<0.05, **p<0.01, ***p<0.001 as compared to vehicle or control.

[5] = test system: P2Y1, P2Y2, P2Y4 or P2Y11 receptors; settings: cited from earlier work
[6] = Serum uridine after intraperitoneal uridine; assay type: in vivo, C57BL/6 N mice; settings: 50 mg/kgBW uridine i.p.
Method: (§3) To directly address whether elevation of serum uridine concentrations—as observed in obesity—can lead to increased hypothalamic UDP synthesis, the inventors next injected C57BL/6 N control animals intraperitoneally with uridine.
(§4) FIG. 9: Effects of intraperitoneal injection of uridine (50 mg/kgBW) or vehicle (saline) in C57B16/N mice on (A) serum uridine (n=4-5 per group) and on (B) hypothalamic UDP contents (n=5 per group) 60 and 90 minutes post-injection as well on (C) food intake (n=15 per group). Data are presented as mean±SEM, *p<0.05, **p<0.01, ***p<0.001.

[7] = Hypothalamic UDP content after intraperitoneal uridine; assay type: in vivo, C57BL/6 N mice; settings: 50 mg/kgBW uridine i.p., 90 minutes after application
Method: as §3, §4

[8] = test system: C57BL/6 N control animals; assay: Food intake after intraperitoneal uridine; assay type: in vivo, C57BL/6 N mice; settings: 50 mg/kgBW uridine i.p., 4 hours after application
Method: as §3, §4

For O=c1ccn([C@@H]2O[C@H](COP(=O)(O)OP(=O)(O)O)[C@@H](O)[C@H]2O)c(=O)[nH]1 [UDP, uridine diphosphate], the “increase of spontaneous food intake” value ([1]; ICV 30 μM UDP) was 45%, the spontaneous food intake ([1]; ICV 2 μL, 1 μM, 10 μM and 30 μM, food intake measured 2 and 4 hours after ICV) was “increases food intake in a dose-dependent manner” and the “increase in cFos immunoreactivity in the arcuate nucleus of the hypothalamus” value [2] was 2.5 fold. The ERK-phosphorylation [3] was “clearly increased ERK-phosphorylation”, the “number of pERK-positive cells in the ARH” value [4] was “significantly increased the number of pERK-positive cells” and the “proportion of NPY-neurons exhibiting cFos immunoreactivity” value (NPY-neurons in the ARH) was 60%. For the same compound, the “action potential frequency of AgRP neurons” value (AgRP neurons; 3 μM UDP) was “increased action potential frequency”, the “number of responsive neurons in the recorded AgRP neuron population” value (AgRP neurons; 3 μM UDP, n=11 in total) was 7 and the “proportion of AgRP-neurons sensitive to UDP” value (AgRP neurons; electrophysiology, 3 μM UDP) was 60%. For the same compound, the “UDP's food intake stimulatory effect” value (AgRPCre mice; AAV-injected AgRPCre mice, CNO-mediated inhibition of AgRP-neurons) was “completely abolished”, the “effect of AAV injection and CNO on UDP-induced food intake” value (AgRPCre mice; Cre-negative control animals, CNO 0.3 mg/kgBW) was “no effect” and the “increase of food intake” value (P2Y6; icv UDP alone) was “≈ 50%”.
For S=C=Nc1cccc(NC(=S)NCCCCNC(=S)Nc2cccc(N=C=S)c2)c1 [MRS2578, 1,4-Di[3-(3-isothiocyanatophenyl)thioureido]butane], the spontaneous food intake ([1]; ICV 2 μL MRS 2578 (1 μM, 10 μM)) was “decreases food intake”, the “effect on UDP's ability to reduce the membrane potential and activate action potential firing of AgRP-neurons” value (AgRP neurons; MRS 2578-preincubation, 3 μM UDP) was “abrogated” and the “action potential frequency of AgRP-neurons, antagonist alone” value (AgRP neurons; MRS 2578 alone) was “no influence on action potential frequency”. The “effect on ghrelin's ability to increase food intake” value (P2Y6; co-icv 2 μg ghrelin and 1 μM MRS 2578) was “no effect”, the “effect on UDP-induced increase of food intake” value (P2Y6; co-icv 30 μM UDP and 1 μM MRS 2578) was “completely abrogated” and the “food intake, antagonist alone” value (P2Y6; icv 1 μM MRS 2578) was “does not modulate food intake by itself”. The “selectivity for P2Y6 receptor activity versus activity at P2Y1, P2Y2, P2Y4 or P2Y11 receptors” value [5] was “selectively blocks P2Y6 receptor activity”.
With O=c1ccn([C@@H]2O[C@H](CO)[C@@H](O)[C@H]2O)c(=O)[nH]1 [uridine] the serum uridine concentrations ([6]; 60 minutes post injection) was “rapid increase of serum uridine concentrations”, the serum uridine concentrations ([6]; 90 minutes after injection) was “returned to baseline concentrations” and the “hypothalamic UDP content” value [7] was “elevation of hypothalamic UDP content”. The food intake [8] was “increased food intake significantly”.
With “ghrelin: centrally applied ghrelin, used to increase feeding as specificity control (GSSFLSPEHQRVQQRKESKKPPAKLQPR; ends and bridges not checked; UniProt Q9UBU3 24-51, looked up)” the feeding (P2Y6; icv 2 μg ghrelin) was “increased feeding to comparable extend as observed upon UDP injection”.
